Consider 9 compounds from ChEMBL document CHEMBL3352421, “Development of a new benzophenone-diketopiperazine-type potent antimicrotubule agent possessing a 2-pyridine structure” (ACS Med Chem Lett, 2014).

SMILES strings stand for the structures. The source made the active and inactive calls. No cut-off for these calls is given here.

In test [1] the target is T1, Tubulin (Sus scrofa, UniProt P02554+P02550). Kind of test: Binding affinity to porcine tubulin incubated for 1 hr by spectrofluorometry. It is filed as protein assay.
Test [2] deals with T1, Tubulin. Kind of test: Inhibition of porcine tubulin polymerization by spectrophotometry. It is filed as protein assay.
In test [3] the test system is HeLa. Kind of test: Cytotoxicity against human HeLa cells after 48 hrs by WST8 assay. It is filed as functional, cell-based.
Test [4] has as its system A549. Kind of test: Cytotoxicity against human A549 cells after 48 hrs by WST8 assay. It is filed as functional, cell-based. The settings on record: A549, 48 h.
The test system of test [5] is HeLa. In words: Induction of multipolar spindle formation in human HeLa cells at 20 to 30 nM by DAPI staining. It is filed as functional, cell-based.
The test system of test [6] is HeLa. Kind of test: Inhibition of mitotic spindle formation in human HeLa cells at 7 and 30 nM by DAPI staining.
Test [7] has as its system HT-29. Kind of test: Cytotoxicity against human HT-29 cells after 48 hrs by XTT/PMS assay. It is filed as functional, cell-based. Conditions: HT-29, 48 h.
Test [8] relates to HeLa. In words: Potency index, ratio of IC50 for Plinabulin to IC50 for test compound against human HeLa cells after 48 hrs by WST8 assay. It is filed as functional.
For test [9], the system named is A549. Kind of test: Potency index, ratio of IC50 for Plinabulin to IC50 for test compound against human A549 cells after 48 hrs by WST8 assay. It is filed as functional.
Test [10] is described as follows: Cytotoxicity against human NHSF46 cells after 48 hrs by XTT/PMS assay. The settings on record: NHSF46, 48 h. It is filed as cell-based.
Test [11] is described as follows: Cytotoxicity against human PMNC cells after 48 hrs by WST1 assay. It is filed as functional, cell-based.
The subject of test [12] is HT-29. Kind of test: Selectivity index, ratio of IC50 for human NHSF46 cells to IC50 for human HT-29 cells. It is filed as functional.
Test [13] relates to HT-29. Kind of test: Selectivity index, ratio of IC50 for human PMNC cells to IC50 for human HT-29 cells. It is filed as functional.
Test [14] concerns HeLa. In words: Induction of multipolar spindle formation in human HeLa cells at 7 nM by DAPI staining. It is filed as functional, cell-based.

At Tubulin [1], `CC(C)(C)c1[nH]cnc1/C=c1\[nH]c(=O)/c(=C/c2ccccc2)[nH]c1=O` [PLINABULIN] had a Kd of 1000 nM. Moreover, the IC50 against Tubulin [2] was 1800 nM; in the test on HeLa [3], 20.6 nM; in the test on A549 [4], 35.7 nM. The outcome with HeLa [5] was Active. Besides, the inhibition result with HeLa [6] was “Active”.
With `Cc1[nH]cnc1/C=c1\[nH]c(=O)/c(=C/c2cccc(C(=O)c3ccccc3)c2)[nH]c1=O`, in the test on HT-29 [7], the IC50 amounted to 15 nM.
Same read-out and setting: under `O=C(c1ccccc1)c1cccc(/C=c2\[nH]c(=O)/c(=C/c3cccnc3)[nH]c2=O)c1` stands over 1000 nM.
Same read-out and setting: as for `O=C(c1ccccc1)c1cccc(/C=c2\[nH]c(=O)/c(=C/c3ccncc3)[nH]c2=O)c1`, the figure is over 1000 nM.
As to `O=C(c1ccccc1)c1cccc(/C=c2\[nH]c(=O)/c(=C/c3ccccn3)[nH]c2=O)c1`, the IC50 in the test with HT-29 [7] came out at 7 nM; against Tubulin [2], 1200 nM; with HeLa [3] it was 5.4 nM; with A549 [4], 14.2 nM; in [10], 77 nM; in test [11], 481 nM. Besides, the Kd on Tubulin [1] worked out at 1300 nM. The “Ratio IC50” value in the test with HeLa [8] stood at 3.8; with A549 [9], 2.5; in the test on HT-29 [12], 10; in the test with HT-29 [13] it was 10. Besides, in the test with HeLa [14], the outcome was Active. For the same compound, the inhibition result in the test with HeLa [6] was “Active”.
In the test with HT-29 [7], `O=C(c1ccccc1)c1cccc(/C=c2\[nH]c(=O)/c(=C/c3ncccn3)[nH]c2=O)c1` showed an IC50 of 75.3 nM.
Same read-out and setting: under `O=C(c1ccccc1)c1cccc(/C=c2\[nH]c(=O)/c(=C/c3ccccc3)[nH]c2=O)c1` stands 94.3 nM; under `CC(=O)N1CC(=O)N/C(=C\c2cccc(C(=O)c3ccccc3)c2)C1=O`, 8800 nM; under `O=C1CNC(=O)/C(=C/c2cccc(C(=O)c3ccccc3)c2)N1`, over 20000 nM.
